# Assay results published in ChEMBL document CHEMBL2429768, “Eco-friendly synthesis and antimicrobial activities of substituted-5-(1H-indol-3-yl)methylene)-2,2-dimethyl-1,3-dioxane-4,6-dione derivatives” (2013).
# Tests used:
# Assay type in all cases: functional
# [1] = system: Aspergillus niger; experiment: Antifungal activity against Aspergillus niger at 50 ug/ml after 72 hrs by agar well diffusion method; details: read-out: DIZ
# [2] = system: Fusarium oxysporum; experiment: Antifungal activity against Fusarium oxysporum at 500 ug/ml after 72 hrs by agar well diffusion method; details: read-out: DIZ
# [3] = system: Fusarium oxysporum; experiment: Antifungal activity against Fusarium oxysporum at 300 ug/ml after 72 hrs by agar well diffusion method; details: read-out: DIZ
# [4] = system: Fusarium oxysporum; experiment: Antifungal activity against Fusarium oxysporum at 200 ug/ml after 72 hrs by agar well diffusion method; details: read-out: DIZ
# [5] = system: Fusarium oxysporum; experiment: Antifungal activity against Fusarium oxysporum at 100 ug/ml after 72 hrs by agar well diffusion method; details: read-out: DIZ
# [6] = system: Fusarium oxysporum; experiment: Antifungal activity against Fusarium oxysporum at 50 ug/ml after 72 hrs by agar well diffusion method; details: read-out: DIZ
# [7] = system: Rhizoctonia solani; experiment: Antifungal activity against Rhizoctonia solani at 500 ug/ml after 72 hrs by agar well diffusion method; details: read-out: DIZ
# [8] = system: Rhizoctonia solani; experiment: Antifungal activity against Rhizoctonia solani at 300 ug/ml after 72 hrs by agar well diffusion method; details: read-out: DIZ
# [9] = system: Rhizoctonia solani; experiment: Antifungal activity against Rhizoctonia solani at 200 ug/ml after 72 hrs by agar well diffusion method; details: read-out: DIZ
# [10] = system: Rhizoctonia solani; experiment: Antifungal activity against Rhizoctonia solani at 100 ug/ml after 72 hrs by agar well diffusion method; details: read-out: DIZ
# [11] = system: Rhizoctonia solani; experiment: Antifungal activity against Rhizoctonia solani at 50 ug/ml after 72 hrs by agar well diffusion method; details: read-out: DIZ
# [12] = system: Bacillus subtilis; experiment: Antibacterial activity against Bacillus subtilis at 500 ug/ml after 24 hrs by agar well diffusion method; details: read-out: DIZ
# [13] = system: Bacillus subtilis; experiment: Antibacterial activity against Bacillus subtilis at 300 ug/ml after 24 hrs by agar well diffusion method; details: read-out: DIZ
# [14] = system: Bacillus subtilis; experiment: Antibacterial activity against Bacillus subtilis at 200 ug/ml after 24 hrs by agar well diffusion method; details: read-out: DIZ
# [15] = system: Bacillus subtilis; experiment: Antibacterial activity against Bacillus subtilis at 100 ug/ml after 24 hrs by agar well diffusion method; details: read-out: DIZ
# [16] = system: Bacillus subtilis; experiment: Antibacterial activity against Bacillus subtilis at 50 ug/ml after 24 hrs by agar well diffusion method; details: read-out: DIZ
# [17] = system: Staphylococcus aureus; experiment: Antibacterial activity against Staphylococcus aureus ATCC 6538 at 500 ug/ml after 24 hrs by agar well diffusion method; details: ATCC 6538, 24 h, read-out: DIZ
# [18] = system: Staphylococcus aureus; experiment: Antibacterial activity against Staphylococcus aureus ATCC 6538 at 300 ug/ml after 24 hrs by agar well diffusion method; details: ATCC 6538, 24 h, read-out: DIZ
# [19] = system: Staphylococcus aureus; experiment: Antibacterial activity against Staphylococcus aureus ATCC 6538 at 200 ug/ml after 24 hrs by agar well diffusion method; details: ATCC 6538, 24 h, read-out: DIZ
# [20] = system: Staphylococcus aureus; experiment: Antibacterial activity against Staphylococcus aureus ATCC 6538 at 100 ug/ml after 24 hrs by agar well diffusion method; details: ATCC 6538, 24 h, read-out: DIZ
# [21] = system: Escherichia coli; experiment: Antibacterial activity against Escherichia coli ATCC 8739 at 300 ug/ml after 24 hrs by agar well diffusion method; details: ATCC 8739, 24 h, read-out: DIZ
# [22] = system: Escherichia coli; experiment: Antibacterial activity against Escherichia coli ATCC 8739 at 200 ug/ml after 24 hrs by agar well diffusion method; details: ATCC 8739, 24 h, read-out: DIZ
# [23] = system: Escherichia coli; experiment: Antibacterial activity against Escherichia coli ATCC 8739 at 100 ug/ml after 24 hrs by agar well diffusion method; details: ATCC 8739, 24 h, read-out: DIZ
# [24] = system: Escherichia coli; experiment: Antibacterial activity against Escherichia coli ATCC 8739 at 50 ug/ml after 24 hrs by agar well diffusion method; details: ATCC 8739, 24 h, read-out: DIZ
# [25] = system: Klebsiella pneumoniae; experiment: Antibacterial activity against Klebsiella pneumoniae at 500 ug/ml after 24 hrs by agar well diffusion method; details: read-out: DIZ
# [26] = system: Klebsiella pneumoniae; experiment: Antibacterial activity against Klebsiella pneumoniae at 300 ug/ml after 24 hrs by agar well diffusion method; details: read-out: DIZ
# [27] = system: Klebsiella pneumoniae; experiment: Antibacterial activity against Klebsiella pneumoniae at 200 ug/ml after 24 hrs by agar well diffusion method; details: read-out: DIZ
# [28] = system: Klebsiella pneumoniae; experiment: Antibacterial activity against Klebsiella pneumoniae at 50 ug/ml after 24 hrs by agar well diffusion method; details: read-out: DIZ
# [29] = system: Escherichia coli; experiment: Antibacterial activity against Escherichia coli ATCC 8739 at 500 ug/ml after 24 hrs by agar well diffusion method; details: ATCC 8739, 24 h, read-out: DIZ
# [30] = system: Klebsiella pneumoniae; experiment: Antibacterial activity against Klebsiella pneumoniae at 100 ug/ml after 24 hrs by agar well diffusion method; details: read-out: DIZ
# [31] = system: Staphylococcus aureus; experiment: Antibacterial activity against Staphylococcus aureus ATCC 6538 at 50 ug/ml after 24 hrs by agar well diffusion method; details: ATCC 6538, 24 h, read-out: DIZ
# [32] = system: Aspergillus flavus; experiment: Antifungal activity against Aspergillus flavus at 50 ug/ml after 72 hrs by agar well diffusion method; details: read-out: DIZ
# [33] = system: Aspergillus flavus; experiment: Antifungal activity against Aspergillus flavus at 100 ug/ml after 72 hrs by agar well diffusion method; details: read-out: DIZ
# [34] = system: Aspergillus flavus; experiment: Antifungal activity against Aspergillus flavus after 72 hrs by agar well diffusion method
# [35] = system: Aspergillus niger; experiment: Antifungal activity against Aspergillus niger after 72 hrs by agar well diffusion method
# [36] = system: Fusarium oxysporum; experiment: Antifungal activity against Fusarium oxysporum after 72 hrs by agar well diffusion method
# [37] = system: Rhizoctonia solani; experiment: Antifungal activity against Rhizoctonia solani after 72 hrs by agar well diffusion method
# [38] = system: Bacillus subtilis; experiment: Antibacterial activity against Bacillus subtilis after 24 hrs by agar well diffusion method
# [39] = system: Staphylococcus aureus; experiment: Antibacterial activity against Staphylococcus aureus ATCC 6538 after 24 hrs by agar well diffusion method; details: ATCC 6538, 24 h
# [40] = system: Escherichia coli; experiment: Antibacterial activity against Escherichia coli ATCC 8739 after 24 hrs by agar well diffusion method; details: ATCC 8739, 24 h
# [41] = system: Klebsiella pneumoniae; experiment: Antibacterial activity against Klebsiella pneumoniae after 24 hrs by agar well diffusion method
# [42] = system: Aspergillus flavus; experiment: Antifungal activity against Aspergillus flavus at 500 ug/ml after 72 hrs by agar well diffusion method; details: read-out: DIZ
# [43] = system: Aspergillus flavus; experiment: Antifungal activity against Aspergillus flavus at 300 ug/ml after 72 hrs by agar well diffusion method; details: read-out: DIZ
# [44] = system: Aspergillus flavus; experiment: Antifungal activity against Aspergillus flavus at 200 ug/ml after 72 hrs by agar well diffusion method; details: read-out: DIZ
# [45] = system: Aspergillus niger; experiment: Antifungal activity against Aspergillus niger at 500 ug/ml after 72 hrs by agar well diffusion method; details: read-out: DIZ
# [46] = system: Aspergillus niger; experiment: Antifungal activity against Aspergillus niger at 300 ug/ml after 72 hrs by agar well diffusion method; details: read-out: DIZ
# [47] = system: Aspergillus niger; experiment: Antifungal activity against Aspergillus niger at 200 ug/ml after 72 hrs by agar well diffusion method; details: read-out: DIZ
# [48] = system: Aspergillus niger; experiment: Antifungal activity against Aspergillus niger at 100 ug/ml after 72 hrs by agar well diffusion method; details: read-out: DIZ
structure (smiles),measurement,setting,value
CC1(C)OC(=O)C(=Cc2c[nH]c3ccc(Br)cc23)C(=O)O1,zone of inhibition at 50 µg/mL,[1],7 mm
same,zone of inhibition at 500 µg/mL,[2],31 mm
same,zone of inhibition at 300 µg/mL,[3],21 mm
same,zone of inhibition at 200 µg/mL,[4],17 mm
same,zone of inhibition at 100 µg/mL,[5],14 mm
same,zone of inhibition at 50 µg/mL,[6],10 mm
same,zone of inhibition at 500 µg/mL,[7],32 mm
same,zone of inhibition at 300 µg/mL,[8],24 mm
same,zone of inhibition at 200 µg/mL,[9],19 mm
same,zone of inhibition at 100 µg/mL,[10],15 mm
same,zone of inhibition at 50 µg/mL,[11],10 mm
same,zone of inhibition at 500 µg/mL,[12],25 mm
same,zone of inhibition at 300 µg/mL,[13],17 mm
same,zone of inhibition at 200 µg/mL,[14],13 mm
same,zone of inhibition at 100 µg/mL,[15],11.5 mm
same,zone of inhibition at 50 µg/mL,[16],7 mm
same,zone of inhibition at 500 µg/mL,[17],27 mm
same,zone of inhibition at 300 µg/mL,[18],19 mm
same,zone of inhibition at 200 µg/mL,[19],15 mm
same,zone of inhibition at 100 µg/mL,[20],12 mm
same,zone of inhibition at 300 µg/mL,[21],23 mm
same,zone of inhibition at 200 µg/mL,[22],16 mm
same,zone of inhibition at 100 µg/mL,[23],15.5 mm
same,zone of inhibition at 50 µg/mL,[24],10.4 mm
same,zone of inhibition at 500 µg/mL,[25],34 mm
same,zone of inhibition at 300 µg/mL,[26],25 mm
same,zone of inhibition at 200 µg/mL,[27],20 mm
same,zone of inhibition at 50 µg/mL,[28],11 mm
same,zone of inhibition at 500 µg/mL,[29],32 mm
same,zone of inhibition at 100 µg/mL,[30],16 mm
same,zone of inhibition at 50 µg/mL,[31],8 mm
same,zone of inhibition at 50 µg/mL,[32],5 mm
same,zone of inhibition at 100 µg/mL,[33],10 mm
same,MIC,[34],35 µg/mL
same,MIC,[35],30 µg/mL
same,MIC,[36],25 µg/mL
same,MIC,[37],25 µg/mL
same,MIC,[38],20 µg/mL
same,MIC,[39],20 µg/mL
same,MIC,[40],10 µg/mL
same,MIC,[41],10 µg/mL
same,zone of inhibition at 500 µg/mL,[42],24 mm
same,zone of inhibition at 300 µg/mL,[43],17 mm
same,zone of inhibition at 200 µg/mL,[44],13 mm
same,zone of inhibition at 500 µg/mL,[45],26 mm
same,zone of inhibition at 300 µg/mL,[46],19 mm
same,zone of inhibition at 200 µg/mL,[47],15 mm
same,zone of inhibition at 100 µg/mL,[48],11 mm
COc1ccc2c(c1)c(C=C1C(=O)OC(C)(C)OC1=O)cn2C,zone of inhibition at 50 µg/mL,[1],6 mm
same,zone of inhibition at 500 µg/mL,[2],29 mm
same,zone of inhibition at 300 µg/mL,[3],21 mm
same,zone of inhibition at 200 µg/mL,[4],16 mm
same,zone of inhibition at 100 µg/mL,[5],12 mm
same,zone of inhibition at 50 µg/mL,[6],7 mm
same,zone of inhibition at 500 µg/mL,[7],29 mm
same,zone of inhibition at 300 µg/mL,[8],21 mm
same,zone of inhibition at 200 µg/mL,[9],16 mm
same,zone of inhibition at 100 µg/mL,[10],12 mm
same,zone of inhibition at 50 µg/mL,[11],7 mm
same,zone of inhibition at 500 µg/mL,[12],22 mm
same,zone of inhibition at 300 µg/mL,[13],14 mm
same,zone of inhibition at 200 µg/mL,[14],11 mm
same,zone of inhibition at 100 µg/mL,[15],9 mm
same,zone of inhibition at 50 µg/mL,[16],4 mm
same,zone of inhibition at 500 µg/mL,[17],26 mm
same,zone of inhibition at 300 µg/mL,[18],16 mm
same,zone of inhibition at 200 µg/mL,[19],13 mm
same,zone of inhibition at 100 µg/mL,[20],10 mm
same,zone of inhibition at 300 µg/mL,[21],20 mm
same,zone of inhibition at 200 µg/mL,[22],15 mm
same,zone of inhibition at 100 µg/mL,[23],13 mm
same,zone of inhibition at 50 µg/mL,[24],8 mm
same,zone of inhibition at 500 µg/mL,[25],32 mm
same,zone of inhibition at 300 µg/mL,[26],23 mm
same,zone of inhibition at 200 µg/mL,[27],18 mm
same,zone of inhibition at 50 µg/mL,[28],9 mm
same,zone of inhibition at 500 µg/mL,[29],31 mm
same,zone of inhibition at 100 µg/mL,[30],14 mm
same,zone of inhibition at 50 µg/mL,[31],6 mm
same,zone of inhibition at 50 µg/mL,[32],4 mm
same,zone of inhibition at 100 µg/mL,[33],9 mm
same,MIC,[34],40 µg/mL
same,MIC,[35],40 µg/mL
same,MIC,[36],35 µg/mL
same,MIC,[37],35 µg/mL
same,MIC,[38],30 µg/mL
same,MIC,[39],25 µg/mL
same,MIC,[40],15 µg/mL
same,MIC,[41],15 µg/mL
same,zone of inhibition at 500 µg/mL,[42],23 mm
same,zone of inhibition at 300 µg/mL,[43],15 mm
same,zone of inhibition at 200 µg/mL,[44],12 mm
same,zone of inhibition at 500 µg/mL,[45],25 mm
same,zone of inhibition at 300 µg/mL,[46],18 mm
same,zone of inhibition at 200 µg/mL,[47],14 mm
same,zone of inhibition at 100 µg/mL,[48],10 mm
